Assay: Inhibition of Human immunodeficiency virus integrase

| SMILES | IC50 [µM] |
| --- | --- |
| Cc1ccc2c(O)c(C(=O)O)ccc2n1 | 47 |
| CC(=O)NC1=CC(=O)c2ccc(C)nc2C1=O | 77 |
| Cc1ccc2ccc(C(=O)O)c(O)c2n1 | > 100 |
